Assay results: ChEMBL document CHEMBL1949518, “Synthesis and biological evaluation of some new 2-pyrazolines bearing benzene sulfonamide moiety as potential anti-inflammatory and anti-cancer agents” (Eur J Med Chem, 2011)

Experiments:
Format in all cases: functional
[1] = system: T47D; experiment: Anticancer activity against human T47D cells after 48 hrs by SRB assay
[2] = system: M14; experiment: Anticancer activity against human M14 cells after 48 hrs by SRB assay; settings: M14, 48 h
[3] = system: MCF7; experiment: Anticancer activity against human MCF7 cells after 48 hrs by SRB assay; settings: MCF7, 48 h
[4] = system: OVCAR-5; experiment: Anticancer activity against human OVCAR5 cells after 48 hrs by SRB assay; settings: OVCAR-5, 48 h
[5] = system: UACC-62; experiment: Anticancer activity against human UACC62 cells after 48 hrs by SRB assay; settings: UACC-62, 48 h
[6] = system: TK-10; experiment: Anticancer activity against human TK10 cells after 48 hrs by SRB assay; settings: TK-10, 48 h
[7] = system: U-251; experiment: Anticancer activity against human U251 cells after 48 hrs by SRB assay; settings: U-251, 48 h
[8] = system: EKVX; experiment: Anticancer activity against human EKVX cells after 48 hrs by SRB assay
[9] = system: SW-620; experiment: Anticancer activity against human SW620 cells after 48 hrs by SRB assay; settings: SW-620, 48 h
[10] = system: MDA-MB-435; experiment: Anticancer activity against human MDA-MB-435 cells after 48 hrs by SRB assay; settings: MDA-MB-435, 48 h
[11] = system: SF-268; experiment: Anticancer activity against human SF268 cells after 48 hrs by SRB assay; settings: SF-268, 48 h
[12] = system: NCI-H460; experiment: Anticancer activity against human NCI-H460 cells after 48 hrs by SRB assay; settings: NCI-H460, 48 h
[13] = system: NCI-H522; experiment: Anticancer activity against human NCI-H522 cells after 48 hrs by SRB assay; settings: NCI-H522, 48 h
[14] = system: SNB-19; experiment: Anticancer activity against human SNB19 cells after 48 hrs by SRB assay; settings: SNB-19, 48 h
[15] = system: SF-539; experiment: Anticancer activity against human SF539 cells after 48 hrs by SRB assay; settings: SF-539, 48 h
[16] = system: A549; experiment: Anticancer activity against human A549 cells after 48 hrs by SRB assay; settings: A549, 48 h
[17] = system: SF-295; experiment: Anticancer activity against human SF295 cells after 48 hrs by SRB assay; settings: SF-295, 48 h
[18] = system: UO-31; experiment: Antiproliferative activity against human UO31 cells assessed as cell growth at 10^-5 M after 48 hrs by SRB assay relative to control; settings: UO-31, 48 h, read-out: Activity
[19] = system: SK-MEL-28; experiment: Anticancer activity against human SK-MEL-28 cells after 48 hrs by SRB assay; settings: SK-MEL-28, 48 h
[20] = system: SK-MEL-2; experiment: Anticancer activity against human SK-MEL-2 cells after 48 hrs by SRB assay; settings: SK-MEL-2, 48 h
[21] = system: SN12C; experiment: Anticancer activity against human SN12C cells after 48 hrs by SRB assay
[22] = system: HOP-62; experiment: Anticancer activity against human HOP62 cells after 48 hrs by SRB assay; settings: HOP-62, 48 h
[23] = system: NCI-H322M; experiment: Anticancer activity against human NCI-H322M cells after 48 hrs by SRB assay
[24] = system: HL-60(TB); experiment: Anticancer activity against human HL-60(TB) cells after 48 hrs by SRB assay; settings: HL-60, 48 h
[25] = system: KM12; experiment: Anticancer activity against human KM12 cells after 48 hrs by SRB assay; settings: KM12, 48 h
[26] = system: OVCAR-3; experiment: Anticancer activity against human OVCAR3 cells after 48 hrs by SRB assay; settings: OVCAR-3, 48 h
[27] = system: K562; experiment: Anticancer activity against human K562 cells after 48 hrs by SRB assay; settings: K562, 48 h
[28] = system: Malme-3M; experiment: Anticancer activity against human MALME-3M cells after 48 hrs by SRB assay
[29] = system: HCT-15; experiment: Anticancer activity against human HCT15 cells after 48 hrs by SRB assay; settings: HCT-15, 48 h
[30] = system: A498; experiment: Anticancer activity against human A498 cells after 48 hrs by SRB assay; settings: A498, 48 h
[31] = system: IGROV-1; experiment: Anticancer activity against human IGROV1 cells after 48 hrs by SRB assay; settings: IGROV-1, 48 h
[32] = system: COLO 205; experiment: Anticancer activity against human COLO205 cells after 48 hrs by SRB assay; settings: COLO 205, 48 h
[33] = system: NCI-H226; experiment: Anticancer activity against human NCI-H226 cells after 48 hrs by SRB assay; settings: NCI-H226, 48 h
[34] = system: ACHN; experiment: Anticancer activity against human ACHN cells after 48 hrs by SRB assay
[35] = system: UACC-257; experiment: Anticancer activity against human UACC257 cells after 48 hrs by SRB assay; settings: UACC-257, 48 h
[36] = system: NCI/ADR-RES; experiment: Anticancer activity against human NCI/ADR-RES cells after 48 hrs by SRB assay
[37] = read-out: LC50 (the source's name)

Cc1cc(O)c(C2=NN(c3ccc(S(N)(=O)=O)cc3)C(c3ccc(N(C)C)cc3)C2)c(C)c1Cl (stereo not given)
GI50 [1]: 2.93 µM | TGI [1]: 14.9 µM | CC50 [1, 37]: 49.8 µM | GI50 [2]: 2.62 µM | TGI [2]: 10.4 µM | CC50 [2, 37]: 32.2 µM | GI50 [3]: 2.01 µM | TGI [3]: 10.5 µM | CC50 [3, 37]: 37.1 µM | GI50 [4]: 12.3 µM | LC50 [4]: 49.7 µM | TGI [4]: 24.7 µM | GI50 [5]: 3.49 µM | LC50 (lethal concentration 50%) [5]: 38.8 µM | TGI [5]: 15.1 µM | GI50 [6]: 4.48 µM | TGI [6]: 18.8 µM | CC50 [6, 37]: 69.5 µM | GI50 [7]: 3.34 µM | LC50 [7]: 53.7 µM | TGI [7]: 13.5 µM | GI50 [8]: 1.88 µM | LC50 (concentration killing 50% of cells) [8]: 59.3 µM | TGI [8]: 13.6 µM | GI50 [9]: 3.72 µM | LC50 (concentration killing 50% of cells) [9]: 50.2 µM | TGI [9]: 15.2 µM | GI50 [10]: 3.57 µM | LC50 (concentration killing 50% of cells) [10]: 41.5 µM | TGI [10]: 14.8 µM | GI50 [11]: 5.76 µM | TGI [11]: 19.4 µM | CC50 [11, 37]: 48.9 µM | GI50 [12]: 2.53 µM | TGI [12]: 7.24 µM | CC50 [12, 37]: 29.8 µM | GI50 [13]: 6.24 µM | LC50 [13]: 58.8 µM | TGI [13]: 21.6 µM | GI50 [14]: 12.4 µM | LC50 [14]: 49.9 µM | TGI [14]: 24.9 µM | GI50 [15]: 12.3 µM | LC50 [15]: 49.7 µM | TGI [15]: 24.7 µM | GI50 [16]: 5.91 µM | LC50 [16]: 73.4 µM | TGI [16]: 22.5 µM | GI50 [17]: 16 µM | LC50 [17]: 62.4 µM | TGI [17]: 31.6 µM | growth at 10 µM [18]: 66.6% | GI50 [19]: 11.7 µM | LC50 [19]: 48.9 µM | TGI [19]: 23.9 µM | GI50 [20]: 11.9 µM | LC50 [20]: 64 µM | TGI [20]: 27.6 µM | GI50 [21]: 5.71 µM | TGI [21]: 19.2 µM | CC50 [21, 37]: 43.9 µM | GI50 [22]: 10.4 µM | LC50 [22]: 52.1 µM | TGI [22]: 23.3 µM | GI50 [23]: 5.01 µM | LC50 [23]: 52.9 µM | TGI [23]: 20.2 µM | GI50 [24]: 7.84 µM | TGI [24]: 20.8 µM | GI50 [25]: 2.8 µM | LC50 [25]: 38.2 µM | TGI [25]: 10.6 µM | GI50 [26]: 4.21 µM | LC50 (concentration killing 50% of cells) [26]: 39.6 µM | TGI [26]: 15.7 µM | GI50 [27]: 2.24 µM | LC50 [27]: 33.9 µM | TGI [27]: 11.5 µM | GI50 [28]: 14.8 µM | TGI [28]: 35.2 µM | CC50 [28, 37]: 83.4 µM | GI50 [29]: 5.48 µM | LC50 (concentration killing 50% of cells) [29]: 57 µM | TGI [29]: 20.8 µM | GI50 [30]: 6.97 µM | TGI [30]: 19.3 µM | CC50 [30, 37]: 44.2 µM | GI50 [31]: 6.19 µM | LC50 [31]: 60.2 µM | TGI [31]: 22.3 µM | GI50 [32]: 1.69 µM | LC50 [32]: 6.49 µM | TGI [32]: 3.31 µM | GI50 [33]: 10.5 µM | LC50 [33]: 55.6 µM | TGI [33]: 24.1 µM | GI50 [34]: 3.7 µM | TGI [34]: 14.4 µM | CC50 [34, 37]: 39.5 µM | GI50 [35]: 11.9 µM | LC50 [35]: 60.2 µM | TGI [35]: 26.8 µM | GI50 [36]: 4.63 µM | TGI [36]: 17 µM | CC50 [36, 37]: 4.35 µM
